One experiment has as its system S. aureus. In words: Broth microdilution assay (MIC). It counts as cell-based, Staphylococcus aureus. On the procedure: (§1) In addition to a radial diffusion assay, antibacterial activities of the peptides were also tested by a broth microdilution assay against E. coli and S. aureus. Briefly, bacteria were grown overnight in TSB to the onset of stationary phase at 37°C with shaking at 200 rpm. The cultures were diluted in a fresh TSB to the final concentration of 2 × 10^4 CFU/mL. A stock solution of each peptide was prepared in 0.01% acetic acid at 640 μg/mL. The peptide solution was then serially diluted in 0.01% acetic acid to 2 μg/mL. After 90 μL aliquots of the bacterial suspension were dispensed into each well of a 96-well polypropylene microtiter plate, 10 μL of peptide solution was added. The antibacterial activities of peptides were assessed by measuring visible turbidity in each well of the plate after 18 hours of incubation at 37°C. MIC was expressed as intervals (a to b), where a was the highest concentration tested at which bacteria were still growing and b was the lowest concentration that caused complete growth inhibition.

Another experiment concerns E. coli. In words: Broth microdilution assay (MIC). It counts as cell-based, Escherichia coli. On the procedure:
as §1

Setting [1] is: broth microdilution in TSB, 2 × 10^4 CFU/mL, 18 hours at 37°C, visible turbidity, MIC as interval a to b (a highest conc. with growth, b lowest conc. with complete inhibition).

Ends that are not written are not given here. Bounds are passed on as bounds.

For the substance LLCIALRKK-NH2 [CopA3], the “MIC (μg/mL) S. aureus” value against S. aureus (18 h) was in the range of 4 to 8 µg/mL. Also, the “antibacterial activity against Staphylococcus aureus (in words)” value with S. aureus (statement of the abstract) is recorded as “potent antibacterial activities”. For the same substance, in the experiment with E. coli (18 h), the “MIC (μg/mL) E. coli” value was 4 to 8 µg/mL. The “antibacterial activity against Escherichia coli (in words)” value with E. coli (statement of the abstract) was “potent antibacterial activities”.

Regarding LHLIALRKK-NH2 [CopA1], the “MIC (μg/mL) S. aureus” value in the experiment with S. aureus (18 h) is greater than 64 µg/mL. Besides, the “MIC (μg/mL) E. coli” value against E. coli (18 h) was greater than 64 µg/mL.

In the case of LRCIALRKK-NH2 [CopA4], in the experiment on S. aureus (18 h), the “MIC (μg/mL) S. aureus” value is greater than 64 µg/mL. Also, the “MIC (μg/mL) E. coli” value with E. coli (18 h) fell in the range of 16 to 32 µg/mL.

For the substance LHCIALRKK-NH2 [CopN5(22–30)], the “MIC (μg/mL) S. aureus” value in the experiment with S. aureus (setting [1]) is greater than 64 µg/mL. Moreover, the “MIC (μg/mL) E. coli” value against E. coli (setting [1]) lay within 8 to 16 µg/mL.

Take LHRIALRKK-NH2 [CopA2]: the “MIC (μg/mL) S. aureus” value against S. aureus (18 h) was greater than 64 µg/mL. In the experiment on E. coli (18 h), the “MIC (μg/mL) E. coli” value was greater than 64 µg/mL.

Source of the values: paper PMC2915626, “Isolation and Characterization of a Defensin-Like Peptide (Coprisin) from the Dung Beetle, Copris tripartitus” (International Journal of Peptides, 2009).
